In one assay the target is CDK6/cyclin D1 (Homo sapiens (Human), UniProt Q00534). The assay is described as follows: CDK6 Caliper Mobility Shift assay. In kind it is biochemical. As to the method: (§1) A Caliper Mobility Shift assay was used to determine the inhibitory activities of a compound against CDK4/cyclin D1 and CDK6/cyclin D1 in their respective kinase buffers (CDK4: 20 mM HEPES, pH 7.5, and 0.01% Triton X-100; CDK6: 50 mM HEPES, pH 7.5, and 0.0015% BRIJ-35). The CDK4/cyclin D1 and CDK6/cyclin D1 were obtained from PROQINASE and CARNA, respectively. A FAM-labeled peptide was obtained from GL.
Sequence of CDK6/cyclin D1 (Q00534 whole entry): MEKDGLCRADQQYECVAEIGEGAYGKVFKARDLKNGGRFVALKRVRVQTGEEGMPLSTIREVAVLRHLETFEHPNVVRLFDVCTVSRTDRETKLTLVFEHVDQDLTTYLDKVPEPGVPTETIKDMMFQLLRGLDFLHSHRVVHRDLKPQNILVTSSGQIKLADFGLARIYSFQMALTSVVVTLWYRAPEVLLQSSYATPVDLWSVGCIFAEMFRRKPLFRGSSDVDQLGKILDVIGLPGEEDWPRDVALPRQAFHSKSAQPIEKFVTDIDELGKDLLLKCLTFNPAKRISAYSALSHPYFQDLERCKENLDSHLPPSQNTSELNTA
Sequence of CDK6/cyclin D1 (P24385 whole entry partner): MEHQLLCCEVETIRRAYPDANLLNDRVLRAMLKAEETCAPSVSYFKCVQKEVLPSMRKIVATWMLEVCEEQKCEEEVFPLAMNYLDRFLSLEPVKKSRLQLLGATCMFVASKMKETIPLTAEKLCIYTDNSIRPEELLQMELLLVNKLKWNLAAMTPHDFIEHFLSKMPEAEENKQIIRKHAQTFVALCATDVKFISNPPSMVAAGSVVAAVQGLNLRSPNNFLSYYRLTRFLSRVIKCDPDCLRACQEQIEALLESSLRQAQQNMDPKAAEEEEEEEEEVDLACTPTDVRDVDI
(§2) The compound at predetermined concentrations was pre-incubated with CDK4/cyclin D1 or CDK6/cyclin D1 in a 384-well microplate at room temperature for 10 min. The FAM-labeled peptide and ATP were subsequently added to initiate the kinase reactions. The final enzyme concentrations were 15 nM for CDK4 and 7.5 nM for CDK6. The final ATP concentrations were […] for CDK4 and […] for CDK6. The microplate was allowed to incubate at 28° C. The kinase reactions were stopped by adding a stop buffer (100 mM HEPES, pH 7.5, 0.012% BRIJ-35, 0.2% Coating Reagent 3 (Caliper Life Sciences), and […]). Conversion data were recorded and utilized to calculate the percent inhibition values for each compound and an IC50 value was then determined. The results are summarized in Table 1, where the symbol “***” represents a value no greater than 200 nM, the symbol “**” represents a value greater than 200 nM but no greater than 500 nM, and the symbol “*” represents a value greater than 500 nM.

In assay [1] the test system is MCF-7 human breast cancer cells. Description: CELLTITER-GLO luminescent cell viability assay. The class given is cell-based. The settings on record: MCF7, 192 h, MCF-7 cells, 8 days, read-out: EC50 (Effect on Cell Viability). As to the method:
A CELLTITER-GLO luminescent cell viability assay was carried out using MCF-7 human breast cancer cells under the normal growth condition. The MCF-7 human breast cancer cells were grown at 37° C. in a 5% CO2 humidified incubator in EMEM, supplemented 10% FBS, 0.01 mg/mL bovine insulin. The cells were seeded at a 3,000 cells/well in a 96-well tissue culture plate. The cells were allowed to adhere overnight in the incubator. A compound (5 μL) in a medium at a predetermined concentration. After the cells was incubated at 37° C. for 8 days, a CELLTITER-GLO detection solution (100 μL) was added. The cells were mixed on an orbital shaker for 5 min and then incubated for additional 10 min. The plate was read with an ENVISION reader. The results are summarized in Table 2, where the symbol “+++” represents a value no greater than 1 μM, the symbol “++” represents a value greater than 1 μM but no greater than 10 μM, and the symbol “+” represents a value greater than 10 μM.

Assay [2] relates to COLO205 human colon cancer cells. Description: CASPASE-GLO 3/7 apoptosis assay (protection against chemotherapy drug induced cytotoxicity). In kind it is cell-based. The method, then:
The CASPASE-GLO 3/7 apoptosis assay was used to evaluate the protective effect of a compound on the cytotoxicity induced by a chemotherapy drug. The apoptosis assay was carried out using COLO205 human colon cancer cells. The cells were grown at 37° C. in a 5% CO2 humidified incubator in PRIM1640 supplemented with 10% FBS and 0.01 mg/mL bovine insulin. The cells were seeded at 4,000 cells/well in a 96-well plate. After incubated overnight, the cells were pretreated with a compound at predetermined concentrations or a vehicle for 16 h, followed by addition of a chemotherapy drug. After incubated for another 48 h, the CASPASE-GLO 3/7 reagent (100 μL/well) was added. The cells were mixed on an orbital shaker for 10 min and incubated at room temperature for 2 h. The 96-well plate was read with an ENVISION reader.

The next assay addresses CDK4/cyclin D1 (Homo sapiens (Human), UniProt P11802). The assay is described as follows: CDK4 Caliper Mobility Shift assay. The class given is biochemical. As to the method: as §1, §2

SMILES strings stand for the structures. Where only a bound is given, the exact number is not on record here.

The values that follow come from patent publication US20250289813A1, “CDK INHIBITORS, PHARMACEUTICAL COMPOSITIONS, AND THERAPEUTIC APPLICATIONS” (ONQUALITY PHARMACEUTICALS CHINA LTD., priority 2022, published 2025).

Sequence of CDK4/cyclin D1 (P11802 whole entry): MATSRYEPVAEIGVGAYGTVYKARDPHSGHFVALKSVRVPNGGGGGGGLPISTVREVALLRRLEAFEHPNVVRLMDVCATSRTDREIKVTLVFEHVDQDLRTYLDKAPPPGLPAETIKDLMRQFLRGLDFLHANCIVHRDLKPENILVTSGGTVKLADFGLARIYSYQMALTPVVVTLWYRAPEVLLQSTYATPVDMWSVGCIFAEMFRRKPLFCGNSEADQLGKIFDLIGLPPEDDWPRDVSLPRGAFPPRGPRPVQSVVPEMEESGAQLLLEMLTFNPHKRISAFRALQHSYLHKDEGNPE
Sequence of CDK4/cyclin D1 (P24385 whole entry partner): as the sequence (P24385 whole entry partner) above

On to `CC(=O)c1c(C)c2cnc(Nc3ccc(N4CCN(S(=O)(=O)NC(=O)CN)CC4)cn3)nc2n(C2CCCC2)c1=O` [Compound A29, N-((4-(6-((6-Acetyl-8-cyclopentyl-5-methyl-7-oxo-7,8-dihydropyrido[2,3-d]-pyrimidin-2-yl)amino)pyridin-3-yl)piperazin-1-yl)sulfonyl)-2-aminoacetamide], for which the IC50 at CDK6/cyclin D1 and at CDK4/cyclin D1 was at most 200 nM each time. In addition, the EC50 in assay [1] is at most 1000 nM. Also, the “RPR (relative protection rate)” value amounted to 89% in assay [2] (compound 1 μM, 5-Fu (10 μM)) and 78% in assay [2] (compound 10 μM, 5-Fu (10 μM)).
For the compound `CCCC(=O)NS(=O)(=O)N1CCN(c2ccc(Nc3ncc4c(C)c(C(C)=O)c(=O)n(C5CCCC5)c4n3)nc2)CC1` [Compound A37, N-((4-(6-((6-Acetyl-8-cyclopentyl-5-methyl-7-oxo-7,8-dihydropyrido[2,3-d]-pyrimidin-2-yl)amino)pyridin-3-yl)piperazin-1-yl)sulfonyl)butyramide], the concentration for half-maximal inhibition (IC50) on CDK6/cyclin D1 and at CDK4/cyclin D1 was 200 to 500 nM throughout. Besides, the EC50 in assay [1] lay within 1000 to 10000 nM.
In the case of `CC(=O)c1c(C)c2cnc(Nc3ccc(N4CCN(S(=O)(=O)NC(=O)C5CCCO5)CC4)cn3)nc2n(C2CCCC2)c1=O` (stereo not drawn) [Compound A39, N-((4-(6-((6-Acetyl-8-cyclopentyl-5-methyl-7-oxo-7,8-dihydropyrido[2,3-d]-pyrimidin-2-yl)amino)pyridin-3-yl)piperazin-1-yl)sulfonyl)tetrahydrofuran-2-carboxamide], the IC50 at CDK6/cyclin D1 was 200 to 500 nM; at CDK4/cyclin D1, at most 200 nM. In addition, the EC50 in assay [1] is 1000 to 10000 nM. Also, the “RPR (relative protection rate)” value is reported as 79% in assay [2] (compound 1 μM, Irinotecan (20 μM)) and 86% in assay [2] (compound 10 μM, Irinotecan (20 μM)).
On to `CC(=O)c1c(C)c2cnc(Nc3ccc(N4CCN(S(=O)(=O)NC(=O)C5CCC5)CC4)cn3)nc2n(C2CCCC2)c1=O` [Compound A41, N-((4-(6-((6-Acetyl-8-cyclopentyl-5-methyl-7-oxo-7,8-dihydropyrido[2,3-d]-pyrimidin-2-yl)amino)pyridin-3-yl)piperazin-1-yl)sulfonyl)cyclobutanecarboxamide], for which the half-inhibitory concentration (IC50) on CDK6/cyclin D1 and on CDK4/cyclin D1 was 200 to 500 nM in each case. For the same compound, the EC50 in assay [1] lay within 1000 to 10000 nM.
As to `CC(=O)c1c(C)c2cnc(Nc3ccc(N4CCN(S(=O)(=O)NCCO)CC4)cn3)nc2n(C2CCCC2)c1=O` [Compound A42, 4-(6-((6-Acetyl-8-cyclopentyl-5-methyl-7-oxo-7,8-dihydropyrido[2,3-d]-pyrimidin-2-yl)amino)pyridin-3-yl)-N-(2-hydroxyethyl)piperazine-1-sulfonamide], the IC50 at CDK6/cyclin D1 and at CDK4/cyclin D1 was at most 200 nM in each case. In addition, the EC50 in assay [1] fell in the range of 1000 to 10000 nM.
With `COCCNS(=O)(=O)N1CCN(c2ccc(Nc3ncc4c(C)c(C(C)=O)c(=O)n(C5CCCC5)c4n3)nc2)CC1` [Compound A43, 4-(6-((6-Acetyl-8-cyclopentyl-5-methyl-7-oxo-7,8-dihydropyrido[2,3-d]-pyrimidin-2-yl)amino)pyridin-3-yl)-N-(2-methoxyethyl)piperazine-1-sulfonamide], the IC50 on CDK6/cyclin D1 and at CDK4/cyclin D1 was at most 200 nM in each case. Besides, in assay [1], the EC50 lay in the range of 1000 to 10000 nM.
Regarding `CC(=O)c1c(C)c2cnc(Nc3ccc(N4CCN(S(=O)(=O)NCC(=O)O)CC4)cn3)nc2n(C2CCCC2)c1=O` [Compound A44, ((4-(6-((6-Acetyl-8-cyclopentyl-5-methyl-7-oxo-7,8-dihydropyrido[2,3-d]-pyrimidin-2-yl)amino)pyridin-3-yl)piperazin-1-yl)sulfonyl)glycine], the IC50 on CDK6/cyclin D1 and at CDK4/cyclin D1 was at most 200 nM in each case. Besides, in assay [1], the EC50 fell in the range of 1000 to 10000 nM. The “RPR (relative protection rate)” value is recorded as 90% in assay [2] (compound 5 μM, 5-Fu (10 μM)) and 65% in assay [2] (compound 20 μM, 5-Fu (10 μM)).
Consider `CC(=O)c1c(C)c2cnc(Nc3ccc(N4CCN(S(=O)(=O)N[C@H](C(=O)O)C(C)C)CC4)cn3)nc2n(C2CCCC2)c1=O` [Compound A45, ((4-(6-((6-Acetyl-8-cyclopentyl-5-methyl-7-oxo-7,8-dihydropyrido[2,3-d]-pyrimidin-2-yl)amino)pyridin-3-yl)piperazin-1-yl)sulfonyl)-L-valine], for which the IC50 on CDK6/cyclin D1 and on CDK4/cyclin D1 was at most 200 nM throughout. The EC50 in assay [1] fell in the range of 1000 to 10000 nM.
On to `CCNS(=O)(=O)N1CCN(c2ccc(Nc3ncc4c(C)c(C(C)=O)c(=O)n(C5CCCC5)c4n3)nc2)CC1` [Compound A47, 4-(6-((6-Acetyl-8-cyclopentyl-5-methyl-7-oxo-7,8-dihydropyrido[2,3-d]-pyrimidin-2-yl)amino)pyridin-3-yl)-N-ethylpiperazine-1-sulfonamide], for which the IC50 at CDK6/cyclin D1 and on CDK4/cyclin D1 was at most 200 nM throughout. Further, in assay [1], the EC50 lay in the range of 1000 to 10000 nM.
For the compound `CC(=O)c1c(C)c2cnc(Nc3ccc(N4CCN(S(=O)(=O)NC(C)C)CC4)cn3)nc2n(C2CCCC2)c1=O` [Compound A48, 4-(6-((6-Acetyl-8-cyclopentyl-5-methyl-7-oxo-7,8-dihydropyrido[2,3-d]-pyrimidin-2-yl)amino)pyridin-3-yl)-N-isopropylpiperazine-1-sulfonamide], the IC50 on CDK6/cyclin D1 and on CDK4/cyclin D1 was at most 200 nM in each case. Besides, the EC50 in assay [1] was in the range of 1000 to 10000 nM.
Regarding `CCCNS(=O)(=O)N1CCN(c2ccc(Nc3ncc4c(C)c(C(C)=O)c(=O)n(C5CCCC5)c4n3)nc2)CC1` [Compound A49, 4-(6-((6-Acetyl-8-cyclopentyl-5-methyl-7-oxo-7,8-dihydropyrido[2,3-d]-pyrimidin-2-yl)amino)pyridin-3-yl)-N-propylpiperazine-1-sulfonamide], the IC50 at CDK6/cyclin D1 and on CDK4/cyclin D1 was 200 to 500 nM each time. For the same compound, in assay [1], the EC50 is over 10000 nM.
`CC(=O)c1c(C)c2cnc(Nc3ccc(N4CCN(S(=O)(=O)N5CCOCC5)CC4)cn3)nc2n(C2CCCC2)c1=O` [Compound A51, 6-Acetyl-8-cyclopentyl-5-methyl-2-((5-(4-(morpholinosulfonyl)piperazin-1-yl)-pyridin-2-yl)amino)pyrido[2,3-d]pyrimidin-7(8H)-one]: the IC50 at CDK6/cyclin D1 and at CDK4/cyclin D1 was at most 200 nM throughout. Besides, the EC50 in assay [1] lay within 1000 to 10000 nM.
With `CC(=O)c1c(C)c2cnc(Nc3ccc(N4CCN(S(=O)(=O)N5CC(O)C5)CC4)cn3)nc2n(C2CCCC2)c1=O` [Compound A52, 6-Acetyl-8-cyclopentyl-2-((5-(4-((3-hydroxyazetidin-1-yl)sulfonyl)piperazin-1-yl)pyridin-2-yl)amino)-5-methylpyrido[2,3-d]pyrimidin-7(8H)-one], the IC50 on CDK6/cyclin D1 and at CDK4/cyclin D1 was at most 200 nM in each case. For the same compound, in assay [1], the EC50 is 1000 to 10000 nM.
`CC(=O)c1c(C)c2cnc(Nc3ccc(N4CCN(S(=O)(=O)OCOC(=O)c5ccccc5)CC4)cn3)nc2n(C2CCCC2)c1=O` [Compound B3, (((4-(6-((6-Acetyl-8-cyclopentyl-5-methyl-7-oxo-7,8-dihydropyrido[2,3-d]-pyrimidin-2-yl)amino)pyridin-3-yl)piperazin-1-yl)sulfonyl)oxy)methyl benzoate]: the IC50 on CDK6/cyclin D1 and at CDK4/cyclin D1 was at most 200 nM throughout. Moreover, the EC50 in assay [1] is 1000 to 10000 nM.
